# Results reported in ChEMBL document CHEMBL2375326, “Novel IKKβ inhibitors discovery based on the co-crystal structure by using binding-conformation-based and ligand-based method” (Eur J Med Chem, 2013).
# Target: T1, Inhibitor of nuclear factor kappa-B kinase subunit beta (Homo sapiens, UniProt O14920)
# T1 sequence (O14920 whole entry): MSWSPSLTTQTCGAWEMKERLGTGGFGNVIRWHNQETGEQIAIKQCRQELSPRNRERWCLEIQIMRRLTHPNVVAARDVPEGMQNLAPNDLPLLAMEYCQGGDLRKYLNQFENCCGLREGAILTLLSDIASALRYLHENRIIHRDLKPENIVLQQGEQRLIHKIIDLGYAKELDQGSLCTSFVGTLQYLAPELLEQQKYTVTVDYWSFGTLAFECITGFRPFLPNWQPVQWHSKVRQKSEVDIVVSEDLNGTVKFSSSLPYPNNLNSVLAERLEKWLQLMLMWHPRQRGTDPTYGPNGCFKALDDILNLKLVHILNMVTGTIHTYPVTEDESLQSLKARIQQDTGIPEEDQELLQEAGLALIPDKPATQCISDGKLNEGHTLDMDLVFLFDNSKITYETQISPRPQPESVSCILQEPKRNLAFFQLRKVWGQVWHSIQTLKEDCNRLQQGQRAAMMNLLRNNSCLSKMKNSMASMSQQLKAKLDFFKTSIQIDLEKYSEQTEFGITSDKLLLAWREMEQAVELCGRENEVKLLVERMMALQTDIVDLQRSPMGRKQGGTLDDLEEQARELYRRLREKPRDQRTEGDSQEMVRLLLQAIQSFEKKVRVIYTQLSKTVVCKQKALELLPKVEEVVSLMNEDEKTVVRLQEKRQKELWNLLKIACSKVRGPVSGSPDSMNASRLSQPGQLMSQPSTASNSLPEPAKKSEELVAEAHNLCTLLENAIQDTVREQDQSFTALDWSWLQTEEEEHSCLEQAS
# Details: read-out: IC50
row,Compound,IC50
1,Cc1sc(N)c2c(=O)oc3c4ccccc4ccc3c12,9690 nM
2,Cc1c(-c2ccc3c(c2)COC3)sc(N)c1C#N,2440 nM

# Same assay, conditions: read-out: pIC50 (converted)
row,Compound,IC50
1,N#Cc1c(C2CCCNC2)cc(-c2c(O)cccc2OCC2CCCCC2)nc1N (configuration not stated),26.3 nM
2,NC(=O)Nc1sc(C#CC2CC2)cc1C(N)=O,263 nM
3,CNC(=O)c1ccc(-c2nc3c(nc(NC)c4ncn(C)c43)s2)cc1,15.1 nM
4,CNc1nc2[nH]c(-c3cccc(OC)c3)cc2c2c1ncn2C,7.94 nM
5,NC(=O)c1sc(-c2ccccc2)cc1NS(=O)(=O)c1ccc(F)cc1,1580 nM
6,CNc1nc2[nH]c(-c3cccc(CNC(=O)CCOC)c3)cc2c2c1ncn2C,12 nM
7,c1ccc(Oc2ccc(-c3ccnc(Nc4ccc5ncsc5c4)n3)cc2)cc1,6030 nM
8,CNC(=O)c1sc(-c2ccccc2)cc1NC(N)=O,100000 nM
9,COc1c(C(N)=O)cc(-c2ccccc2)cc1-c1ccncc1,15800 nM
10,CNCCNS(=O)(=O)c1ccc(-c2ccnc3[nH]ccc23)cc1,32.4 nM
11,CNc1nc2sc(-c3ccc(SC)cc3)nc2c2c1ncn2C,28.2 nM
12,CN(C)c1ccc(-c2cc(-c3ccccc3O)nc(N)c2C#N)cc1,20000 nM
13,CNc1nc2sc(-c3ccc(C(=O)NCc4cccs4)cc3)nc2c2c1ncn2C,15.1 nM
14,NC(=O)Nc1sc(C#Cc2cccc(NC(=O)c3ccccn3)c2)cc1C(N)=O,100000 nM
15,CN(c1ccc(-c2ccnc3[nH]ccc23)cc1)S(C)(=O)=O,316 nM
16,NC(=O)c1sc(-c2ccccc2)cc1N,3240 nM
17,CCS(=O)(=O)N1CCC(COc2cc3cnccc3cc2-c2ccccc2)CC1,20000 nM
18,Cc1cnc2c(NCCN)nc3cc(-c4ccc[nH]4)sc3n12,2.51 nM
19,NC(=O)Nc1ncc(-c2ccccc2)nc1C(N)=O,10000 nM
20,CNC(=O)c1cc(-c2ccc(F)cc2)cc(-c2ccc(N3CCCCC3)cc2)c1N,15800 nM
21,NC(=O)c1sc(-c2ccccc2)cc1NC(=O)NCc1ccccc1,100000 nM

row,Compound,IC50
1,NC(=O)Nc1cc(-c2cccc(Cl)c2)sc1C(N)=O,39.8 nM
2,CNc1nc2sc(-c3ccc(F)cc3)nc2c2c1ncn2C,26.3 nM
3,C#Cc1c(C2CCNCC2)cc(-c2c(O)cccc2OCC2CC2)nc1N,8.51 nM
4,N#Cc1c(C2CCCNC2)cc(-c2c(O)cccc2OCc2ccccc2)nc1N (configuration not stated),9.12 nM
5,CNc1nc2[nH]c(-c3cccc(CNC(=O)CCC(N)=O)c3)cc2c2c1ncn2C,21.9 nM
6,CC(=O)c1cc2cc(Nc3nccc(-c4ccc(S(=O)(=O)N5CCNCC5)cc4)n3)ccc2o1,25.7 nM
7,CNc1nc2cc(-c3cccc(CCC(=O)O)c3)sc2n2c(C)cnc12,9.12 nM
8,O=C1C=CC(c2ccc(-c3ccnc(Nc4ccc5ncsc5c4)n3)cc2)C=C1,2510 nM
9,CNC(=O)c1cc(-c2ccc(F)cc2)cc(-c2ccc(S(C)(=O)=O)cc2)c1N,15800 nM
10,CNc1nc2cc(-c3nccs3)sc2c2c1ncn2C,229 nM
11,CNc1nc2sc(-c3ccc(N4CC=CCC4)cc3)nc2c2c1ncn2C,33.1 nM
12,CCNC(=O)c1ccc(-c2nc3c(nc(NC)c4ncn(C)c43)s2)cc1,15.1 nM
13,NC(=O)Nc1cc(-c2ccccc2)sc1C(N)=O,25.1 nM
14,CNc1nc2[nH]c(-c3cccc(C#N)c3)cc2c2c1ncn2C,7.08 nM
15,Cc1cnc2c(NCCN)nc3cc(-c4ncc[nH]4)sc3n12,447 nM
16,Cc1cnc2c(NCCN3CCNCC3)nc3cc(-c4ccccc4)sc3n12,39.8 nM
17,CNc1nc2cc(-c3ccccc3)sc2n2c(C)cnc12,21.9 nM
18,O=S(=O)(c1ccc(-c2ccnc(Nc3cc(F)cc(F)c3)n2)cc1)N1CCNCC1,117 nM
19,CN(CCN)C(=O)c1ccc(Nc2nccc(-c3cc4ccccc4s3)n2)cc1,> 100000 nM
20,CNc1nc2[nH]c(-c3ccc(F)cc3)cc2c2c1ncn2C,42.7 nM
21,N#Cc1c(-c2ccc([N+](=O)[O-])cc2)cc(-c2ccccc2O)nc1N,20000 nM

# Target: T2, Inhibitor of nuclear factor kappa-B kinase subunit beta (Homo sapiens) (UniProt O14920)
# T2 sequence (whole entry): T1 sequence (O14920 whole entry)
# Assay: Inhibition of human IKKbeta using GST-IkappaBalpha as substrate at 10 uM
# Details: not given
row,Compound,inhibition
1,N#Cc1c(C2CCNCC2)cc(-c2c(O)cccc2OCC2CC2)nc1N,100%
2,CC[C@H](OC(=O)Nc1ccc(S(=O)(=O)N2CCCCC2)cc1)c1ccco1,44.3%
3,CCCCc1ccc(-n2cnc3c(=O)[nH]c(N)nc32)cc1,41.5%
4,OC[C@@H](O)[C@@H](O)[C@H](O)c1nn(-c2ccccc2)c2nc3ccc(Cl)cc3nc12,44.8%
5,Nc1nc(=O)c2ncn(-c3cccc(-c4ccccc4)c3)c2[nH]1,47.1%
6,Cc1ccc(-c2cc3c(c(N)c2C#N)c(=O)oc2ccccc23)o1,23.4%
7,O=C(c1ccco1)c1coc2c1cc(O)c1ccccc12,29.6%
8,Cc1sc(N)c2c(=O)oc3c4ccccc4ccc3c12,64.1%
9,CCOC(=O)c1c(N)oc(=O)c2c1-c1ccccc1C2=O,43.8%
10,COC(=O)c1ccc(NC(=O)COc2ccc(S(=O)(=O)NC(C)(C)C)cc2)cc1,23.8%
11,CC(C)NC[C@@H](O)COc1cccc2[nH]c3ccccc3c12,36.7%
12,Cc1c(-c2ccc3c(c2)COC3)sc(N)c1C#N,92.4%
13,NC(=O)C[C@H](Nc1ncc2c(n1)-c1ccccc1OC2)C(=O)O,44.4%
